Results taken from BindingDB's records for doi:10.1016/0014-2999(93)90076-T (University of North Carolina, 1993).

Each compound was assayed against T1, D1 dopamine receptor (Macaca fascicularis, UniProt Q5I6B7).
T1 sequence (Q5I6B7 whole entry): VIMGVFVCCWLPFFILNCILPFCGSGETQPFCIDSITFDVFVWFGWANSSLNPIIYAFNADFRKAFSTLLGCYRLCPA

In order of falling Ki:
1. Oc1cc2c(cc1O)[C@@H](c1ccccc1)CNCC2  0.106 µM
2. Oc1cc2c(cc1O)[C@@H]1c3ccccc3CN[C@@H]1CC2 [(+/-)-trans-10,11-dihydroxy-5,6,6a,7,8,12b-hexahydrobenzo[a]phenanthridine]  0.0202 µM
3. CN1CCc2cc(Cl)c(O)cc2[C@@H](c2ccccc2)C1 [SCH 23390,R(+)]  0.0013 µM
